Results on three compounds are retold here after patent publication US20060229358A1, “Pharmaceutical composition containing flavonoids” (Taipei Medical University, priority 2005, published 2006).

Structures are written as SMILES. Where two headings read alike, the source gives them in different places.

The EC50 is the concentration at which the effect is half-maximal. What is called IC50 is the midpoint of a concentration-inhibition curve.

For experiment [1], the system named is PDE4H (HARBS). Briefly: Literature binding to brain HARBS (PDE4H). As to conditions: worked out from the cited EC50 values. The source says:
Recently, in United States of American and Europe, the selective inhibitors for the PDE4 are considered as the important materials for treating asthma or chronic obstructive pulmonary disease (COPD). In addition, the clinical trials thereof are considered safe and effective, whereas they have side effects, such as vomiting, gastric hypersecretion, etc.. […] In the brain, there are two binding sites for rolipram, which are high (HARBS) and low affinity rolipram binding sites (LARBS), while in the periphery of bronchi and lung there exist only LARBS. Generally, the anti-inflammatory and the bronchodilatory effects of rolipram are considered as its ability to bind with LARBS [21]. […] Therefore, the pharmaceutical factories in the world are trying to develop drugs with high PDE4H/PDE4L ratio for separating the side effects from the main therapeutic effects, while some progresses are obtained. […] Although the respective PDE4H/PDE4L ratios of roflumilast and cilomilast are much higher than that of rolipram, they are not good enough. […] It seems having a good perspective.

Another experiment deals with PDE4L (LARBS). As to conditions: reference [23]; read-out: EC50 for binding PDE4L; cited from earlier work.
Experiment [2] concerns PDE4H (HARBS). As to conditions: cited from earlier work; for PDE4H/PDE4L ratio: references [24-26].
Experiment [3] addresses T1, high affinity rolipram binding sites (HARBS, PDE4H).
T1 construct: IC50 for displacement of [3H]-rolipram from HARBS; other: 300 μM, guinea pig, preliminary experimental data; other: guinea pig whole brain particulates; over 300 μM not available due
In words: Binding to particulate HARBS of whole brain, displacement of [3H]-rolipram (Assay II). Further details: species or system guinea pig. As to conditions: 2 nM [3H]-rolipram, guinea pig whole brain particulates, FIG. 2; read-out: IC50 for displacement of [3H]-rolipram from HARBS. How it is done:
The binding experiments are carried on basis of the methods of Schneider et al. and Zhao et al. with a small modification. Under a protocol approved by the Animal Care and Use Committee of Taipei Medical University, five male guinea pigs (Hartley), weighing 500-600 g, were anesthetized. The whole brains taken therefrom were homogenized with in 10 volumes of cold medium (pH 6.5) containing 20 mM Bis-Tris, 2 mM benzamidine, 2 mM EDTA, 50 mM sodium chloride, 0.1 mM phenylmethanesulfonyl fluoride (PMSF), and 1 mM dithiothreitol. At 4° C., the homogenate was centrifuged at 170 g for 15 min for removing blood vessels and connective tissues, and the supernatant thereof was then re-centrifuged at 40,000 g for 30 min for separating the particulates from the cytosol of cells.
After incubation, the reaction was stopped by transferring the reaction vessel to a bath of crashed ice. Then the reaction mixture was filtered through a punched glass fiber filter (Whatman GF/B) placed in a mini funnel, which was adopted to a 1.5 ml of Eppendorff's tube for collecting the filtrate in the mini centrifuge at 1000 rpm for 10 seconds. By the same way (centrifugation), it is further washed with 0.3 ml reaction buffer each for three times. The Whatman GF/B filter was mixed with 2 ml of cocktail and counted by the β-scintillation counter (Backman, Fullerton, Calif., USA) for counting the radioactivity thereof.
For orientation: Displacement assays read how much labelled ligand stays bound in the presence of the test substance.

In the case of `COc1ccc(C2CNC(=O)C2)cc1OC1CCCC1` (stereo not drawn) [rolipram], the PDE4H/PDE4L ratio in the experiment on PDE4H (HARBS) [1] worked out at 0.002. Besides, the EC50 was ~1000 nM with PDE4L (LARBS) and ~2 nM in the experiment on PDE4H (HARBS) [2] (reference [23], read-out: EC50 for binding PDE4H). Moreover, the IC50 in experiment [3] was 7.4 nM.
Consider `COc1ccc([C@]2(C#N)CC[C@@H](C(=O)O)CC2)cc1OC1CCCC1` [cilomilast], for which, in the experiment with PDE4H (HARBS) [2], the PDE4H/PDE4L ratio entry is “about 1”.
For the compound `O=C(Nc1c(Cl)cncc1Cl)C(=O)c1cn(Cc2ccc(F)cc2)c2ccc(O)cc12` [AWD-12-281, N-(3,5-dichloro-pyrid-4-yl)-[1-(4-fluorobenzyl)-5-hydroxy-indole-3-yl]-gly oxylic acid amide], in the experiment on PDE4H (HARBS) [2], the PDE4H/PDE4L ratio entry is listed as “about 11”.
